Experimental data as given in patent US20250282723A1, “AMYLOID TARGETING AGENTS AND METHODS OF USING THE SAME” (The Regents of the University of California, priority 2021, published 2025).
Where “and” joins values, the source holds several entries; their conditions need not be identical. Equal entries are not always repeated.

Experiments:
[1] = molecular target: T1, aggregated Aβ (1-42) peptides (Homo sapiens, UniProt P05067); experiment: Estimation of binding constant (KD) to aggregated Aβ (1-42) peptides; details: aggregated Aβ(1-42) 5 μM, increasing concentration of probe, 5% DMSO in nanopure water
T1 construct: Synthetic Aβ (1-42) peptide was purchased from Biopeptide, Co LLC; purchased Biopeptide, Co LLC (San Diego, California); host or cells: chemical synthesis
T1 sequence (P05067 672-713): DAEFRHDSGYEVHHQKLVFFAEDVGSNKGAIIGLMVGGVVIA
Method: (§1) Preparation of aggregated Aβ (1-42) peptides. Synthetic Aβ (1-42) peptide was purchased from Biopeptide, Co LLC (San Diego, California). Aggregated Aβ (1-42) was prepared as previously described.^26 Briefly, Aβ (1-42) was dissolved in 100% 1,1,1,3,3,3,-hexafluoro-2-propanol (HFIP) to a concentration of 1 mM and put on a shaker at room temperature (RT) for 24 hours. The solution was then diluted in cold nanopure water (2:1 H2O: HFIP). Aliquoted fractions were lyophilized for 3 days before dissolving in nanopure water to a concentration of 100 μM. Aggregated Aβ solutions were incubated and shaken at 37° C. for 3 days before use. The formation of soluble aggregates (67% fibrils as a mixture with 13% oligomers and 20% monomer) was confirmed using a standard thioflavin T (ThT) assay and by Sodium Dodecyl Sulphate-Polyacrylamide Gel Electrophoresis (SDS-PAGE) gel analysis (FIG. 11 and FIG. 12).
Estimation of Binding Constant (KD) to aggregated Aβ (1-42) peptides. Aggregated Aβ(1-42) at a final concentration of 5 μM (based on the molecular weight of monomer) was mixed with increasing concentration of each probe in 5% DMSO in nanopure water. KD's were determined as previously described.^21
(§2) Synthetic Aβ (1-42) peptide was purchased from Biopeptide, Co LLC (San Diego, California). Aggregated Aβ (1-42) was prepared as previously described.^32 Briefly, monomeric Aβ (1-42) was dissolved in 100% 1,1,1,3,3,3,-hexafluoro-2-propanol (HFIP) to a final concentration of 1 mM and dissolved on a shaker at RT for 24 hours. This solution was then diluted with cold nanopure water (2:1 H2O:HFIP) and aliquoted into fractions. These samples were then lyophilized for 3 days before dissolving in nanopure water to a final concentration of 100 μM. AD solutions were aggregated by incubating and shaking at 37° C. for 3 days before use. The formation of soluble aggregates was confirmed using a standard Thioflavin T (ThT) assay and by SDS-PAGE gel analysis.^1
Aggregated Aβ(1-42) or αS at a final concentration of 5 μM (based on the molecular weight of the monomer) was mixed with an increasing concentration of each probe in 5% DMSO in nanopure water. Kd's were calculated as previously described.^34 The measurements for each probe were repeated in technical triplicates and the averages are shown with standard deviations. Kd's for probes 1-3 with aggregated Aβ(1-42) have been reported previously.^31

[2] = molecular target: T1, aggregated Aβ (1-42) peptides; experiment: Fluorescence excitation/emission and fluorescence enhancement of probes bound versus unbound to aggregated Aβ (1-42) peptides; type: binding; details: probe 4 μM; for Em (λmax) (with Aβ) / Ex (λmax) (with Aβ): aggregated Aβ (1-42) 5 μM; for Em (λmax) (with Aβ) / Ex (λmax) (with Aβ) / Fold Increase with Aβ / Emmax (with Aβ): 5% DMSO in nanopure water; for Fold Increase with Aβ: fluorescence intensity with aggregated Aβ (1-42) 5 μM vs probe alone, at λmax of the amyloid-bound state; for Emmax (with Aβ) / FI with Aβ: probes of FIG. 14, aggregated Aβ(1-42) 5 μM; for FI with Aβ: fold increase of fluorescence, bound vs unbound
Method: as §1
(§3) Estimation of fluorescence enhancement of probes when bound versus unbound to aggregated Aβ (1-42) peptides. Aggregated Aβ (1-42) at a final concentration of 5 μM (based on the molecular weight of monomer) was mixed with each fluorescent probe at a final concentration of 4 μM in 5% DMSO in nanopure water. The solution (80 μL) was transferred to a black opaque 96 well plate and the fluorescence was read using a microplate reader. For all probes, the relative fluorescence enhancement of the bound versus unbound state was estimated by comparing the intensity at λmax of the amyloid-bound state.
as §2
(§4) Aggregated αS or Aβ(1-42) at a final concentration of 5 μM (based on the molecular weight of monomer) was mixed with each fluorescent probe at a final concentration of 4 μM in 5% DMSO in nanopure water. The solution (80 μL total volume) was transferred to a black opaque 96 well plate and the fluorescence excitation and emission were read using a microplate reader. For emission fluorescence enhancement, the relative fluorescence enhancement of the bound versus unbound state was estimated by comparing the fluorescence intensity at λmax of the amyloid-bound state.

[3] = Quantum yield measurements; type: physicochemical; details: 5% DMSO/H2O, reference standard Coumarin 30; for Quantum Yield (Φ): probes of FIG. 14
Method: Quantum Yield Measurements. To determine the quantum yield (QY) of compounds ARCAM, 1-5, a procedure that was similar to a previously reported protocol for estimating the QY for Thioflavin T^24 was used. Briefly, the absorbance spectrum of each probe (in 5% Dimethyl Sulfoxide (DMSO)/water (H2O)), in addition to the absorbance spectrum for the reference standard (Coumarin 30, QY=0.67)^27 was measured. The wavelength at which the two normalized absorbance curves intersected was used as the excitation wavelength. A serial dilution of each probe and the standard was made with absorbance values at the excitation wavelength in the range of 0 to 0.1 absorbance units. At each concentration, the emission spectra for each probe and the standard were measured. Technical triplicates of these experiments were performed for all probes, and the averages were recorded. From these emission spectra, the area under the curve was calculated and plotted against the absorbance at each concentration (FIGS. 3-7). The data were fitted to Equation 1 to obtain estimates for QY: […]
where QY represents the quantum yield, A represents the absorbance, E represents the integrated fluorescence emission, η represents the refractive index of the solvent^28,29, and the ‘p’ and ‘r’ subscripts signify the probe or the reference compound, respectively.
Quantum Yield ((D) for each probe was measured as described previously.^31 Briefly, we measured the absorbance spectrum of each probe in 5% DMSO/H2O, as well as the absorbance spectrum for the reference standard (Coumarin 30, =0.67 in Acetonitrile). Both normalized absorbance curves were plotted, and the wavelength of intersection was used as the excitation wavelength. A serial dilution was made for each probe and the standard with absorbance values at the excitation wavelength varying between of 0 to 0.1 absorbance units. At each concentration, the emission spectra for each probe and the standard were measured. Each experiment was repeated in technical triplicates for all probes, and the averages were recorded. The integrated fluorescence emission was calculated and plotted against the absorbance at each concentration. The data were fitted to Equation Si to obtain estimates for Φ: […]
where Φ represents the quantum yield, A represents the absorbance, E represents the integrated fluorescence emission, η represents the refractive index of the solvent, and the ‘p’ and ‘r’ subscripts signify the probe or the reference compound, respectively.

[4] = Fluorescence excitation and emission spectra of free (unbound) probes in aqueous solution; type: physicochemical; details: for Em (λmax) (Free) / Ex (λmax) (Free): free probe in aqueous solution; for fluorescence intensity of the free probe in aqueous solution compared to ARCAM (1): free probes in aqueous solution, FIG. 2; for Emmax (Free): probes of FIG. 14, free
Method: as §3, §4

SMILES	Kd [1] [µM]	Em (λmax) (with Aβ) [2] [nm]	Ex (λmax) (with Aβ) [2] [nm]	Fold Increase with Aβ [2]	Emmax (with Aβ) [2] [nm]	FI with Aβ [2]	QY [3]	Quantum Yield (Φ) [3]	Em (λmax) (Free) [4] [nm]	Ex (λmax) (Free) [4] [nm]	fluorescence intensity of the free probe in aqueous solution compared to ARCAM (1) [4]	Emmax (Free) [4] [nm]	Fold Increase with Aβ ([2]; listed as ARCAM (1)) [fold]
CCC1CCCCN1c1ccc2cc(/C=C(\C#N)C(=O)NCCOCCOCCOC)ccc2c1 (racemic) [Compound 5, (E)-2-cyano-3-(6-(2-ethylpiperidin-1-yl)naphthalen-2-yl)-N-(2-(2-(2-methoxyethoxy)ethoxy)ethyl)acrylamide]	3.2 ± 0.6	567 ± 5	443 ± 5	1.2 fold and 1.2 ± 0.1 fold	567	1.2 ± 0.1	0.0055 ± 0.0010	0.0055	575 ± 6	445 ± 1	lower but similar in magnitude to ARCAM (1)	575	–
COCCOCCOCCNC(=O)/C(C#N)=C/c1ccc2cc(N3CCCCC3C)ccc2c1 (racemic) [Compound 4, (E)-2-cyano-N-(2-(2-(2-methoxyethoxy)ethoxy)ethyl)-3-(6-(2-methylpiperidin-1-yl)naphthalen-2-yl)acrylamide]	4.4 ± 2.3	559 ± 8	439 ± 3	1.9 fold and 1.9 ± 0.5 fold	559	1.9 ± 0.5	0.0062 ± 0.0003	0.0062	583 ± 1	431 ± 4	lower but similar in magnitude to ARCAM (1)	583	–
COCCOCCOCCNC(=O)C(C#N)=Cc1ccc2cc(N3CCCCC3)ccc2c1 (mixture of isomers) [Compound 1]	6.3 ± 0.7	560 ± 10	421 ± 4	2.1 ± 0.7 fold	560	2.1 ± 0.7	0.0066 ± 0.0023	0.0066	590 ± 4	409 ± 11	–	590	2.1
